In BindingDB's records for doi:10.1021/jm100978n (Pfizer, 2011) one finds IC50 data, which are given here for 15 compounds.

This test can be described thus: Antagonist activity at CCR5 receptor expressed in HeLa-P4 cells co-expressing CD4 assessed as inhibition of infusion to HIV gp120 expressed in CHO-tat10 cells after 20 hrs by cell-cell fusion assay.
With `COC(=O)N[C@@H](CCN1[C@@H]2CC[C@H]1C[C@@H](n1c(C)nc3c1CN(C(C)=O)CC3)C2)c1cccc(F)c1` [endo-methyl(S)-3-(3-(5-acetyl-2-methyl-4,5,6,7-tetrahydro-3H-imidazo[4,5-c]pyridin-3-yl)-8-azabicyclo[3.2.1]octan-8-yl)-1-(3-fluorophenyl)propylcarbamate], the IC50 was determined as 200 pM. To `CC(=O)N[C@@H](CCN1[C@@H]2CC[C@H]1C[C@@H](n1c(C)nc3c1CN(C(C)C)CC3)C2)c1ccccc1` [endo-N-((S)-3-(3-(5-isopropyl-2-methyl-4,5,6,7-tetrahydro-3H-imidazo[4,5-c]pyridin-3-yl)-8-azabicyclo[3.2.1]octan-8-yl)-1-phenylpropyl)acetamide] belongs 3000 pM. To `CC(=O)N[C@@H](CCN1[C@@H]2CC[C@H]1C[C@@H](n1c(C)nc3c1CN(C(=O)C(C)C)CC3)C2)c1ccccc1` [endo-N-((S)-3-(3-(5-isobutyryl-2-methyl-4,5,6,7-tetrahydro-3H-imidazo[4,5-c]pyridin-3-yl)-8-azabicyclo[3.2.1]octan-8-yl)-1-phenylpropyl)acetamide] belongs 400 pM. `CC(=O)N[C@@H](CCN1[C@@H]2CC[C@H]1C[C@@H](n1c(C)nc3c1CN(Cc1ccccc1)CC3)C2)c1ccccc1` [endo-N-((S)-3-(3-(5-benzyl-2-methyl-4,5,6,7-tetrahydro-3H-imidazo[4,5-c]pyridin-3-yl)-8-azabicyclo[3.2.1]octan-8-yl)-1-phenylpropyl)acetamide]: the IC50 was determined as 29000 pM. To `CC(=O)N[C@@H](CCN1[C@@H]2CC[C@H]1C[C@@H](n1c(C)nc3c1CN(S(C)(=O)=O)CC3)C2)c1ccccc1` [endo-N-((S)-3-(3-(2-methyl-5-(methylsulfonyl)-4,5,6,7-tetrahydro-3H-imidazo[4,5-c]pyridin-3-yl)-8-azabicyclo[3.2.1]octan-8-yl)-1-phenylpropyl)acetamide] belongs 2000 pM; to `COC(=O)N1CCc2nc(C)n([C@H]3C[C@H]4CC[C@@H](C3)N4CC[C@H](NC(C)=O)c3cccc(F)c3)c2C1` [endo-methyl 3-(8-((S)-3-acetamido-3-(3-fluorophenyl)propyl)-8-azabicyclo[3.2.1]octan-3-yl)-2-methyl-6,7-dihydro-3H-imidazo[4,5-c]pyridine-5(4H)-carboxylate], 100 pM; to `COC(=O)N[C@@H](CCN1[C@@H]2CC[C@H]1C[C@@H](n1c(C)nc3c1CN(C(C)=O)CC3)C2)c1ccccc1` [endo-methyl(S)-3-(3-(5-acetyl-2-methyl-4,5,6,7-tetrahydro-3H-imidazo[4,5-c]pyridin-3-yl)-8-azabicyclo[3.2.1]octan-8-yl)-1-phenylpropylcarbamate], 600 pM. To `CC(=O)N[C@@H](CCN1[C@@H]2CC[C@H]1C[C@@H](n1c(C)nc3c1CNCC3)C2)c1ccccc1` [endo-N-((S)-3-(3-(2-methyl-4,5,6,7-tetrahydro-3H-imidazo[4,5-c]pyridin-3-yl)-8-azabicyclo[3.2.1]octan-8-yl)-1-phenylpropyl)acetamide] belongs 9000 pM. To `CC(=O)N[C@@H](CCN1[C@@H]2CC[C@H]1C[C@@H](n1c(C)nc3c1CN(C(C)=O)CC3)C2)c1ccccc1` [endo-N-((S)-3-(3-(5-acetyl-2-methyl-4,5,6,7-tetrahydro-3H-imidazo[4,5-c]pyridin-3-yl)-8-azabicyclo[3.2.1]octan-8-yl)-1-phenylpropyl)acetamide] belongs 400 pM; to `Cc1nc(C(C)C)n([C@H]2C[C@H]3CC[C@@H](C2)N3CC[C@H](NC(=O)C2CCC(F)(F)CC2)c2ccccc2)n1` [endo-4,4-difluoro-N-((S)-3-(3-(5-isopropyl-3-methyl-1H-1,2,4-triazol-1-yl)-8-azabicyclo[3.2.1]octan-8-yl)-1-phenylpropyl)cyclohexanecarboxamide], 1400 pM; to `CCC(=O)N1CCc2nc(C)n([C@H]3C[C@H]4CC[C@@H](C3)N4CC[C@H](NC(C)=O)c3ccccc3)c2C1` [endo-N-((S)-3-(3-(2-methyl-5-propionyl-4,5,6,7-tetrahydro-3H-imidazo[4,5-c]pyridin-3-yl)-8-azabicyclo[3.2.1]octan-8-yl)-1-phenylpropyl)acetamide], 400 pM. For the compound `COC(=O)N1CCc2nc(C)n([C@H]3C[C@H]4CC[C@@H](C3)N4CC[C@H](NC(C)=O)c3ccccc3)c2C1` [endo-methyl 3-(8-((S)-3-acetamido-3-phenylpropyl)-8-azabicyclo[3.2.1]octan-3-yl)-2-methyl-6,7-dihydro-3H-imidazo[4,5-c]pyridine-5(4H)-carboxylate], the IC50 came to 300 pM.

With `CC(=O)N[C@@H](CCN1[C@@H]2CC[C@H]1C[C@@H](n1c(C)nc3ccccc31)C2)c1ccccc1` [endo-N-((S)-3-(3-(2-methyl-1H-benzo[d]imidazol-1-yl)-8-azabicyclo[3.2.1]octan-8-yl)-1-phenylpropyl)acetamide], the IC50 was 500 pM.

As to `CC(=O)N[C@@H](CCN1[C@@H]2CC[C@H]1C[C@@H](n1c(C)nc3c1CN(C)CC3)C2)c1ccccc1` [endo-N-((S)-3-(3-(2,5-dimethyl-4,5,6,7-tetrahydro-3H-imidazo[4,5-c]pyridin-3-yl)-8-azabicyclo[3.2.1]octan-8-yl)-1-phenylpropyl)acetamide], the IC50 worked out at 5000 pM.

With `COC(=O)N[C@@H](CCN1[C@@H]2CC[C@H]1C[C@@H](n1c(C)nc3c1CN(C(=O)OC)CC3)C2)c1cccc(F)c1` [endo-methyl 3-(8-((S)-3-(3-fluorophenyl)-3-(methoxycarbonylamino)propyl)-8-azabicyclo[3.2.1]octan-3-yl)-2-methyl-6,7-dihydro-3H-imidazo[4,5-c]pyridine-5(4H)-carboxylate], the IC50 was determined as 200 pM.

By IC50 is commonly meant the concentration needed to halve the response being measured.
